This is an account of results in patent US8632767B2, “3-[1-(3-haloalkyl)triazolyl]phenyl sulphide derivatives as acaricides and insecticides” (Bayer Intellectual Property GmbH, priority 2009, dated 2014).

In data set [1] the test system is greenhouse red spidermite (Tetranychus urticae). Description: Tetranychus test; OP resistant (TETRUR spray treatment), Example 3. Particulars: foliar, 144 h, spray on bean leaf discs, after 6 days, read-out: effect (mites killed). The format is in vivo. The method, then:
(§1) Solvents: 78.0 parts by weight of acetone • • 1.5 parts by weight of dimethylformamide Emulsifier: 0.5 part by weight of alkylaryl polyglycol ether An appropriate preparation of active compound is prepared by mixing 1 part by weight of active compound with the stated amounts of solvent and emulsifier and diluting the concentrate with emulsifier-containing water to the desired concentration. Leaf discs of bean (Phaseolus vulgaris) infested by all stages of the greenhouse red spidermite (Tetranychus urticae) are sprayed with a preparation of active compound at the desired concentration. After 6 days, the effect in % is determined. Here, 100% means that all of the mites have been killed; 0% means that no mites have been killed.

Data set [2] can be described thus: log P by HPLC on reversed-phase C18, LC-MS, pH 2.7, formic acid (HCOOH). The data set is classed as physicochemical. Conditions: reversed-phase C18 HPLC column; HPLC C18, pH 2.7, 0.1% aqueous formic acid/acetonitrile. The method, then: (§2) The log P values reported in the table above and in the preparation examples were determined in accordance with EEC Directive 79/831 Annex V.A8 by HPLC (High Performance Liquid Chromatography) on reversed-phase columns (C18), with the following methods: ^[b] The determination is made by LC-MS in the acid range at pH 2.7 with 0.1% aqueous formic acid and acetonitrile (containing 0.1% formic acid) as eluents; linear gradient from 10% acetonitrile to 95% acetonitrile. Calibration took place with unbranched alkan-2-ones (having 3 to 16 carbon atoms) of known log P values (log P values determined from the retention times by linear interpolation between two successive alkanones).

The next data set concerns Meloidogyne incognita. Description: Meloidogyne incognita test (MELGIN). The data set is classed as in vivo. Conditions: 20 ppm, lettuce in sand, after 14 days. The method, then: Solvents: 78.0 parts by weight of acetone • • 1.5 parts by weight of dimethylformamide Emulsifier: 0.5 part by weight of alkylaryl polyglycol ether An appropriate preparation of active compound is prepared by mixing 1 part by weight of active compound with the stated amounts of solvent and emulsifier and diluting the concentrate with water to the desired concentration. Pots are filled with sand, solution of active compound, meloidogyne incognita egg/larvae suspension, and lettuce seeds. The lettuce seeds germinate and the plants develop. On the roots, the galls develop. After 14 days, the nematicidal effect is determined from the gall formation, in %. Here, 100% means that no galls were found; 0% means that the number of galls on the treated plants corresponds to that for the untreated control.

In data set [3] the test system is larvae of the mustard beetle (Phaedon cochleariae). Put plainly: Phaedon test (PHAECO spray treatment). Particulars: foliar, 168 h, spray on Chinese cabbage leaf discs, after 7 days, read-out: effect (beetle larvae killed). The data set is classed as in vivo. The method, then: Solvents: 78.0 parts by weight of acetone • • 1.5 parts by weight of dimethylformamide Emulsifier: 0.5 part by weight of alkylaryl polyglycol ether An appropriate preparation of active compound is prepared by mixing 1 part by weight of active compound with the stated amounts of solvent and emulsifier and diluting the concentrate with emulsifier-containing water to the desired concentration. Leaf discs of Chinese cabbage (Brassica pekinensis) are sprayed with a preparation of active compound at the desired concentration and, after they have dried, are populated with larvae of the mustard beetle (Phaedon cochleariae). After 7 days, the effect in % is determined. Here, 100% means that all of the beetle larvae have been killed; 0% means that no beetle larvae have been killed.

Data set [4] is described as follows: log P by HPLC on reversed-phase C18, eluent variant not stated. The data set is classed as physicochemical. Particulars: reversed-phase C18 HPLC column. The method, then:
The log P values reported in the table above and in the preparation examples were determined in accordance with EEC Directive 79/831 Annex V.A8 by HPLC (High Performance Liquid Chromatography) on reversed-phase columns (C18), with the following methods: Calibration took place with unbranched alkan-2-ones (having 3 to 16 carbon atoms) of known log P values (log P values determined from the retention times by linear interpolation between two successive alkanones).

A further data set deals with Boophilus microplus. Description: Boophilus microplus test (BOOPMI injection). The data set is classed as in vivo. Particulars: Rhipicephalus microplus, 168 h; 20 μg/animal, injection into abdomen, after 7 days; read-out: activity (no fertile eggs laid). The method, then: Solvent: Dimethyl Sulphoxide An appropriate preparation of active compound is prepared by mixing 10 mg of active compound with 0.5 ml of solvent and diluting the concentrate with solvent to the desired concentration. The solution of active compound is injected into the abdomen (Boophilus microplus) and the animals are transferred into dishes and kept in a controlled atmosphere. The activity is assessed on the basis of deposition of fertile eggs. After 7 days, the effect in % is determined. Here, 100% means that none of the ticks has laid fertile eggs.

Data set [5] relates to greenhouse red spidermite (Tetranychus urticae). Put plainly: Tetranychus test; OP resistant (TETRUR spray treatment), Example 5, comparison with prior art. The format is in vivo. Conditions: 20 g/ha, 6d. The method, then:
as §1, with “the desired time,” for “6 days,”

A short description of data set [6]: log P by HPLC on reversed-phase C18, pH 2.3, phosphoric acid (H3PO4). The data set is classed as physicochemical. Particulars: reversed-phase C18 HPLC column; HPLC C18, pH 2.3, 0.1% aqueous phosphoric acid/acetonitrile. The method, then:
as §2, with “^[a]” for “^[b]”, “made” for “made by LC-MS”, “2.3” for “2.7”, “phosphoric” for “formic”, “acetonitrile” for “acetonitrile (containing 0.1% formic acid)”

Turning to `Cc1ccc(-n2cnc(C(F)F)n2)cc1[S+]([O-])CC(F)(F)F` (stereo not shown) [I-A-16], in data set [1], the pest or weed control at 100 g/ha stood at 100%. For the same molecule, the chromatographic logP – broadly, lipophilicity estimated from chromatographic retention – in data set [2] is 2.1. Further, the “nematicidal effect (gall formation)” value in the data set with Meloidogyne incognita came out at 100%. Moreover, in data set [3], the pest or weed control at 500 g/ha was determined as 100%.

`Cc1ccc(NNC(=O)C(F)F)c(C)c1` [N′-(2,4-Dimethylphenyl)-2,2-difluoroacetohydrazide] displayed a chromatographic logP in data set [4] of 1.8.

In the case of `Cc1cc(C)c([S+]([O-])CC(F)(F)F)cc1-n1cnc(C(F)(F)C(F)(F)F)n1` (stereo not shown) [I-A-10], the pest or weed control at 0.02 mg in the data set on Boophilus microplus came out at 100%. The pest or weed control at 500 g/ha in data set [1] and in data set [3] was 100% each time. The molecule also registered a chromatographic logP in data set [2] of 3.27.

For the molecule `Cc1cc(C)c([S+]([O-])CC(F)F)cc1-n1cnc(C(F)(F)C(F)(F)Cl)n1` (stereo not shown) [I-A-12], the pest or weed control at 0.02 mg in the data set on Boophilus microplus worked out at 100%. Also, the pest or weed control at 100 g/ha in data set [1] stood at 100%. In data set [2], this molecule displayed a chromatographic logP of 3.02. In data set [3], the pest or weed control at 500 g/ha is 100%.

On to `[O-][S+](CC(F)(F)F)c1cc(-n2cnc(C(F)F)n2)ccc1Cl` (stereo not shown) [I-A-27], for which the pest or weed control at 0.02 mg with Boophilus microplus came to 100%. Also, the pest or weed control at 100 g/ha in data set [1] is 100%. In addition, the chromatographic logP in data set [2] came to 2.39. The “nematicidal effect (gall formation)” value in the data set with Meloidogyne incognita came out at 100%. Besides, in data set [3], the pest or weed control at 500 g/ha turned out to be 100%.

With `Cc1cc(C)c(-n2cnc(C(F)(F)F)n2)cc1SCC(F)(F)F` [VI-297, reference compound], the “% effect after application” value in data set [5] is 70 6d %.

In the case of `Cc1cc(F)c(-n2cnc(C(F)F)n2)cc1SCC(F)(F)F` [I-A-30], in data set [1], the pest or weed control at 100 g/ha is 100%. The molecule also returned a chromatographic logP in data set [2] of 3.28. Moreover, the “nematicidal effect (gall formation)” value with Meloidogyne incognita stood at 90%. Moreover, the pest or weed control at 500 g/ha in data set [3] worked out at 100%.

Regarding `Cc1cc(F)c(-n2cnc(C(F)F)n2)cc1[S+]([O-])CC(F)(F)F` (stereo not shown) [I-A-15], the pest or weed control at 500 g/ha in data set [1] and in data set [3] was 100% each time. In data set [2], the chromatographic logP was 2.12. Besides, in the data set with Meloidogyne incognita, the “nematicidal effect (gall formation)” value turned out to be 90%.

For `FC(F)c1ncn(-c2ccc(Cl)c(SCC(F)(F)F)c2)n1` [I-A-9], the pest or weed control at 0.02 mg with Boophilus microplus is 100%. Moreover, in data set [1], the pest or weed control at 100 g/ha came to 100%. Further, the chromatographic logP in data set [2] worked out at 3.28. For the same molecule, in the data set on Meloidogyne incognita, the “nematicidal effect (gall formation)” value is reported as 100%. In data set [3], the pest or weed control at 500 g/ha was found to be 100%.

`Cc1cc(C)c(-n2cnc(C(F)F)n2)cc1SCC(F)(F)F` [I-A-2, 3-(Difluoromethyl)-1-{2,4-dimethyl-5-[(2,2,2-trifluoroethyl)sulphanyl]phenyl}-1H-1,2,4-triazole]: the pest or weed control at 0.02 mg in the data set with Boophilus microplus amounted to 100%. Further, in data set [1], the pest or weed control at 500 g/ha amounted to 100%. In data set [2], this molecule came in with a chromatographic logP of 3.33. The “nematicidal effect (gall formation)” value in the data set with Meloidogyne incognita came out at 100%. Besides, the “% effect after application” value in data set [5] was 100 6d %.

In the case of `Cc1cc(F)c(-n2cnc(C(F)F)n2)cc1[S+]([O-])CC(F)F` (stereo not shown) [I-A-23], the pest or weed control at 500 g/ha in data set [1] and in data set [3] was 100% in each case. The chromatographic logP in data set [2] stood at 1.81.

For `Cc1cc(C)c(-n2cnc(C(F)F)n2)cc1SCC(F)F` [I-A-1], the pest or weed control at 0.02 mg in the data set on Boophilus microplus worked out at 100%. For the same molecule, the pest or weed control at 100 g/ha in data set [1] is 100%. The chromatographic logP was found to be 3.02 in data set [2] and 3.06 in data set [6].

On to `Cc1ccc(-n2cnc(C(F)F)n2)cc1SCC(F)(F)F` [I-A-5], for which the pest or weed control at 0.02 mg with Boophilus microplus turned out to be 100%. Moreover, the pest or weed control at 100 g/ha in data set [1] was 100%. The chromatographic logP in data set [2] came out at 3.24. Moreover, the pest or weed control at 500 g/ha in data set [3] is 100%.

As for `Cc1cc(C)c([S+]([O-])CC(F)(F)F)cc1-n1cnc(C(F)F)n1` (stereo not shown) [I-A-4, 3-(Difluoromethyl)-1-{2,4-dimethyl-5-[(2,2,2-trifluoroethyl)sulphinyl]phenyl}-1H-1,2,4-triazole], in the data set with Boophilus microplus, the pest or weed control at 0.02 mg was 100%. For the same molecule, in data set [1], the pest or weed control at 100 g/ha was determined as 100%. The molecule further had a chromatographic logP in data set [2] of 2.19. For the same molecule, the “nematicidal effect (gall formation)” value with Meloidogyne incognita stood at 100%.
